# Measured values taken from ChEMBL document CHEMBL5113541, “Design, Synthesis, and Monoamine Oxidase B Selective Inhibitory Activity of N-Arylated Heliamine Analogues” (ACS Med Chem Lett, 2022).
# pIC50: −log10 of the molar value.
# Assays:
# [1] = biological target: T1, MAO-B (amine oxidase [flavin-containing] B) (Homo sapiens, UniProt P27338); test: Inhibition of human MAO-B assessed as residual activity at 10 uM relative to control; details: read-out: Activity
# T1 sequence (P27338 whole entry): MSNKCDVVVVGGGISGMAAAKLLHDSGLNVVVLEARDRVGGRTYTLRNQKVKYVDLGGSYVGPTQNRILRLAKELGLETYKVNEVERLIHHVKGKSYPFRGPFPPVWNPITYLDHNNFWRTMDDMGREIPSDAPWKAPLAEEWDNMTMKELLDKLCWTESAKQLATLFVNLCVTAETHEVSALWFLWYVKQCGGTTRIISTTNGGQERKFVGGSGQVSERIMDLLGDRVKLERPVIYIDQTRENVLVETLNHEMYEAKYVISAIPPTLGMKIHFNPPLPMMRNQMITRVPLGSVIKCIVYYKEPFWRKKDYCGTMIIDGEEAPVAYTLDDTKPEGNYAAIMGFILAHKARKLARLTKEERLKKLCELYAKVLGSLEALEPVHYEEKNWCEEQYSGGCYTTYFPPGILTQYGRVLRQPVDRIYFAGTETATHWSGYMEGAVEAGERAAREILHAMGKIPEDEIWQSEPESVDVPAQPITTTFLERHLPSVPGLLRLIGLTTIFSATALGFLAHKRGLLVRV
# [2] = Metabolic stability in mouse liver microsome assessed as compound remaining at 500 uM measured at 10 mins by LC-MS/MS method; assay type: ADME; details: liver microsomes, read-out: Stability
# [3] = Solubility of compound in PBS at pH 7.0 at 100 uM measured for 20 mins by LC-MS/MS analysis; assay type: physicochemical
# [4] = Lipophilicity, log D of the compound at pH 7.4; assay type: physicochemical; details: buffer
# [5] = Metabolic stability in human liver microsome assessed as compound remaining at 500 uM measured at 10 mins by LC-MS/MS method; assay type: ADME; details: liver microsomes, read-out: Stability
# [6] = Metabolic stability in human liver microsome assessed as compound remaining at 500 uM measured at 60 mins by LC-MS/MS method; assay type: ADME; details: liver microsomes, read-out: Stability
# [7] = Apparent permeability of the compound in human Caco-2 cells at 25 uM measured after 2 hrs by LC-MS/MS analysis; assay type: ADME, cell-based
# [8] = Metabolic stability in mouse liver microsome assessed as compound remaining at 500 uM measured at 60 mins by LC-MS/MS method; assay type: ADME; details: liver microsomes, read-out: Stability
# [9] = system: SH-SY5Y; test: Cytotoxicity against human SH-SY5Y cells assessed as inhibition of cell viability at 10 uM after 24 hrs by MTS assay relative to control; assay type: functional
# [10] = biological target: T2, Amine oxidase [flavin-containing] A (Homo sapiens, UniProt P21397); test: Inhibition of human MAO-A measure after 1 hr by microplate reader analysis
# T2 sequence (P21397 whole entry): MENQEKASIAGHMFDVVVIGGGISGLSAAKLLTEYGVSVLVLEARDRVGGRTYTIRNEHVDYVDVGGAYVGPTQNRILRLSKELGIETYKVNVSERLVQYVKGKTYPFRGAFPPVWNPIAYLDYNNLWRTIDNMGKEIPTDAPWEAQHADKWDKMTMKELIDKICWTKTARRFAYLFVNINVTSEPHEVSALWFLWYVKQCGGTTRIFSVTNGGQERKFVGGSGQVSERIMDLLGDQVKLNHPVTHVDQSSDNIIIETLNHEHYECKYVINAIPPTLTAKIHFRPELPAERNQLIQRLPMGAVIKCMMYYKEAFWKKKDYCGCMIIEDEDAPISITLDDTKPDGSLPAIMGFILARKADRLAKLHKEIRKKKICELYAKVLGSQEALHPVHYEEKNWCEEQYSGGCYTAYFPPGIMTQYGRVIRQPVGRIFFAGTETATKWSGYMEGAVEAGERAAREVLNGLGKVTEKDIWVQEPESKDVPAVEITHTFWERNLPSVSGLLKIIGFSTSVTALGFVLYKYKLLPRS
# [11] = biological target: T3, Amine oxidase [flavin-containing] B (Homo sapiens, UniProt P27338); test: Inhibition of human MAO-B measure after 1 hr by microplate reader analysis
# T3 sequence (P27338 whole entry): T1 sequence (P27338 whole entry)
# [12] = biological target: T2, Amine oxidase [flavin-containing] A; test: Inhibition of recombinant human MAO-A
# [13] = biological target: T4, Amine oxidase [flavin-containing] B (Mus musculus, UniProt Q8BW75); test: Inhibition of mouse MAO-B
# T4 sequence (Q8BW75 whole entry): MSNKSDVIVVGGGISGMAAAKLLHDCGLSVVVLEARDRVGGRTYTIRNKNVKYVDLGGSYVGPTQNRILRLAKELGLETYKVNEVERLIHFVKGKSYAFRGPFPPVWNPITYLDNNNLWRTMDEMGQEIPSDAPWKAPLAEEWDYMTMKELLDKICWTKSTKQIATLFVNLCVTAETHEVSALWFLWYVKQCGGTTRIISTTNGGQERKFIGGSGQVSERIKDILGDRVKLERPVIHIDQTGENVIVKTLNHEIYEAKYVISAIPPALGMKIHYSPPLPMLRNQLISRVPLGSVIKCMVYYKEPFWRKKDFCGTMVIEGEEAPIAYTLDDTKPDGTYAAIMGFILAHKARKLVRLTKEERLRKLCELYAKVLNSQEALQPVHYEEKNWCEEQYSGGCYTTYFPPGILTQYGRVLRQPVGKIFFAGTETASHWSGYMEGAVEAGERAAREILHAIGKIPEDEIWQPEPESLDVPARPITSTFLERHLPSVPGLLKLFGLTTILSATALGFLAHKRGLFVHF
# [14] = biological target: T5, Amine oxidase [flavin-containing] A (Mus musculus, UniProt Q64133); test: Inhibition of mouse MAO-A
# T5 sequence (Q64133 whole entry): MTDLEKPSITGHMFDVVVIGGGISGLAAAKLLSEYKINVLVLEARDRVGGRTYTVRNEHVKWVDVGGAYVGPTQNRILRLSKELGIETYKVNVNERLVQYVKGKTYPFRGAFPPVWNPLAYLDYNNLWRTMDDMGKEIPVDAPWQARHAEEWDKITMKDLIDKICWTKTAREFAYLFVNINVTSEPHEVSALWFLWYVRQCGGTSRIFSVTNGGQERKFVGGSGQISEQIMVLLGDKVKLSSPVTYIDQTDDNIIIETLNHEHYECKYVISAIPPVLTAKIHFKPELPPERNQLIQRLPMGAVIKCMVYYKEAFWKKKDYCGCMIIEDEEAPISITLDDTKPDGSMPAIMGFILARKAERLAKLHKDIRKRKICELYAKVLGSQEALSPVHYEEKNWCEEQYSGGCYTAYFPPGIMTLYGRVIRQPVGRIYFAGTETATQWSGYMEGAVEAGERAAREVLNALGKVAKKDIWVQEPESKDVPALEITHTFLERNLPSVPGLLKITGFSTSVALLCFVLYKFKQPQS
# [15] = organism: Rattus norvegicus; test: Inhibition of rat brain stem MAO at 2 mM using serotonin as substrate incubated for 30 mins by fluorometric analysis relative to control; assay type: tissue-based; details: Brainstem
activity at 10 µM [1] [%],remaining at 10 min [2] [%],"solubility at 20 min, 100 µM [3] [µM]",logD [4],remaining at 10 min [5] [%],remaining at 1 h [6] [%],"Papp at 2 h, 25 µM [7] [×10⁻⁶ cm/s]",remaining at 1 h [8] [%],pIC50 [10],pIC50 [11],pIC50 [12],Compound,Activity [9] [%],pIC50 [13],pIC50 [14],inhibition [15] [%]
95,12.1,3.7,4.2,77.1,53.5,10.1,1.7,,,,COc1ccc(N2CCc3cc(OC)c(OC)cc3C2)cc1,,,,
,1.2,7.6,4.8,71.1,23.2,8.3,0.3,,,,COc1cc2c(cc1OC)C(C)N(c1ccc(F)cc1)CC2 (centres undefined),,,,
81,3.7,19.1,4.5,63.9,10.5,21,0.4,,,,COc1cc2c(cc1OC)CN(c1ccccc1)CC2,,,,
14,12.6,6.6,3.7,61,9.2,2.8,0.4,< 4.00,5.81,,COc1cc2c(cc1OC)CN(c1ccc(C=O)cc1)CC2,99,,,
79,92.6,93.9,3.1,97.8,79.5,26.8,64.4,,,,COc1cc2c(cc1OC)CN(c1ccc(CO)cc1)CC2,,,,
57,2.5,20.3,4.5,56.8,56.9,20.4,0.6,< 4.00,4.87,,COc1cc2c(cc1OC)CN(c1ccc(F)cc1)CC2,104,,,
107,22.5,89.6,3.2,94.7,72.1,43.7,0.5,,,,COc1cc2c(cc1OC)CN(c1cccc(O)c1)CC2,,,,
,15.5,22.2,4,66.1,18,7.4,1,,,,COc1cc2c(cc1OC)C(C)N(c1ccc(C=O)cc1)CC2 (centres undefined),,,,
,83.4,89.8,3.4,91.3,78.4,34.4,33.8,,,,COc1cc2c(cc1OC)C(C)N(c1ccc(CO)cc1)CC2 (centres undefined),,,,
97,91.6,≥ 95,2.5,91.8,88.4,81.2,91.8,,,,COc1cc2c(cc1OC)CN(c1ccc(C(=O)O)cc1)CC2,,,,

# The remaining lines, values behind:
Compound,activity at 10 µM [1] [%],remaining at 10 min [2] [%],"solubility at 20 min, 100 µM [3] [µM]",logD [4],remaining at 10 min [5] [%],remaining at 1 h [6] [%],"Papp at 2 h, 25 µM [7] [×10⁻⁶ cm/s]",remaining at 1 h [8] [%],pIC50 [10],pIC50 [11],pIC50 [12],Activity [9] [%],pIC50 [13],pIC50 [14],inhibition [15] [%]
COc1cc2c(cc1OC)CN(c1cc(F)cc(F)c1)CC2,24,,,,,,,,< 4.00,5.29,,97.3,,,
COc1cc2c(cc1OC)CN(CCCOc1ccc(C(C)=O)c(O)c1)CC2,,,,,,,,,,,5.09,,,,
COc1cc2c(cc1OC)CN(c1cc(C(F)(F)F)cc(C(F)(F)F)c1)CC2,86,83.1,< 0.5,5.7,98.7,62.2,< 0.1,26.9,,,,,,,
COc1cc2c(cc1OC)CNCC2,96,,,,,,,,,,,,< 3.00,< 4.00,
COc1cc2c(cc1OC)[C@@H](C)NCC2,,,,,,,,,,,,,,,48
COC(=O)c1ccccc1N1CCc2cc(OC)c(OC)cc2C1,103,0.4,12.7,4.3,7.2,0.2,2.1,0.1,,,,,,,
COc1cc2c(cc1OC)CN(c1ccccn1)CC2,89,9.9,0.8,3.7,70.8,17.7,38.8,0.2,,,,,,,
COc1cc2c(cc1OC)CN(c1cccnc1)CC2,86,9.5,78.9,3.7,66.9,15.5,39.5,0.2,,,,,,,
